The record followed here is ChEMBL document CHEMBL1147317, “Metachromin C, a new cytotoxic sesquiterpenoid from the Okinawan marine sponge Hippospongia metachromia” (J Nat Prod, 1989).

Each structure is given as a SMILES string. In brackets after ≈: the same amount, converted by molar mass.

The nature of test [1]: Vasodilatory activity in rabbit coronary artery assessed as inhibition of KCl-induced contraction. The class given is functional, tissue-based, Oryctolagus cuniculus.
Test [2] relates to L5178Y. The experiment in a line: Cytotoxicity against mouse L5178Y cells. The class given is functional, cell-based.
Test [3] relates to L1210. The experiment in a line: Cytotoxicity against mouse L1210 cells. The class given is functional, cell-based.

Turning to `C=C1[C@H](C)CCC[C@]1(C)CC/C(C)=C/CC1=C(O)C(=O)C=C(OC)C1=O` [METACHROMIN A], the concentration for half-maximal inhibition (IC50) in test [1] worked out at 3000 nM. `C=C1[C@H](C)CCC[C@]1(C)CC[C@@]1(C)C=Cc2c(O)c(OC)cc(OC)c2O1` [METACHROMIN B]: in test [1], the IC50 amounted to 3000 nM.

As to `COC1=CC(=O)C(O)=C(C/C=C(\C)CC[C@@]2(C)CCC=C(C)[C@H]2C)C1=O` [METACHROMIN C], the figures for the IC50 in test [2], in test [3] and in test [1] were 0.92 µg/mL (≈ 2.57 µM), 2 µg/mL (≈ 5.58 µM) and 3000 nM, respectively.
